Test results taken from patent US20160298082A1, “METHOD FOR OBTAINING IMMUNO-STIMULATORY DENDRITIC CELLS” (TRANSIMMUNE AG, priority 2013, published 2016).
“Also recorded” adds a separate entry of the source.

What was measured:
GILZ [1] = assay: GILZ mRNA expression in CD11c+ MoDC (quantitative real-time PCR); format: cell-based, human; conditions: relative to untreated MoDC cultured alone; 24 hr (FIG. 13B); dex 100 nM; PUVA 100 ng/mL, 1 J/cm^2
Protocol: Monocytes were cultured at a density of 5×10^6 cells/mL in 6- and 12-well polystyrene tissue culture plates at 37° C. and 5% CO2 in RPMI-1640 (Gibco) supplemented with heat-inactivated 15% AB serum (Gemini) and 1% penicillin/streptomycin (now referred to as complete media). 800 IU/mL recombinant human GM-CSF (R&D Systems) and 1000 IU/mL recombinant human IL-4 (R&D Systems) were added to cultures for 36 hr to induce monocyte to DC differentiation as described.
Non-adherent cells (purity: 66.0±4.5% CD3^+) removed during plastic adherence will now be generally referred to as lymphocytes. Lymphocytes were treated with 8-MOP (100 ng/mL) and UVA (1 J/cm^2), washed with PBS, and co-cultured in complete media at 37° C. and 5% CO2 with either PUVA-treated or untreated-MoDC in a ratio of 5 or 10 lymphocytes to 1 MoDC. […] 24 hr after LPS stimulation, cells were harvested for RNA isolation and immunophenotyping, and supernatants were collected for cytokine quantification.
RNA was isolated from CD11c^+ MoDC using QIAShredder columns (QIAGEN) and the RNeasy Mini Kit (QIAGEN) with on-column Dnase I treatment (QIAGEN). RNA yield and purity were assessed using a NanoDrop ND-1000 spectrophotometer. cDNA was obtained using the High Capacity cDNA Reverse Transcription Kit (Applied Biosystems) in a 96-well thermocycler (MJ Research PTC-200). […]

CD11c+ cells = assay: Apoptosis / cell death of CD11c+ MoDC (Annexin-V/7-AAD); format: cell-based, human
Protocol: Immunofluorescence was analyzed using a FACSCalibur L (BD Biosciences) within 2 hr of fixation with 2% paraformaldehyde.

lymphocytes [2] = assay: Apoptosis of lymphocytes (Annexin-V/7-AAD); format: cell-based, human
MoDC [3] = assay: Cytokine quantification in MoDC supernatants after LPS stimulation (magnetic bead multiplex); format: cell-based, human
Protocol: Lymphocytes were treated with 8-MOP (100 ng/mL) and UVA (1 J/cm^2), washed with PBS, and co-cultured in complete media at 37° C. and 5% CO2 with either PUVA-treated or untreated-MoDC in a ratio of 5 or 10 lymphocytes to 1 MoDC. MoDC treated for 24 hr with 100 nM dexamethasone (Sigma) served as the positive control group. After 24 hr, cells were harvested and MoDC were re-purified. […] CD11c^+ MoDC were re-plated at 0.5-1.0×10^6 cells/mL in complete media and stimulated with 100 ng/mL LPS (Sigma). 24 hr after LPS stimulation, cells were harvested for RNA isolation and immunophenotyping, and supernatants were collected for cytokine quantification.
(§1) Culture supernatants were analyzed in a multiplex format utilizing magnetic beads to IL-6, IL-8, IL-10, IL-12p70, IFN-γ, TNF-α, RANTES, MCP-1, and MIP-1β (BioRad Laboratories). For siRNA experiments, supernatants were analyzed with enzyme-linked immunosorbent assay (ELISA) kits for IL-10 (R&D Systems) and IL-12p70 (Enzo Life Science). All samples and standards were run in duplicate and analyzed using the LUMINEX 200 (LUMINEX), or the BioTek EL800 (BioTek).

MoDC [4] = assay: IL-10 and IL-12p70 ELISA in siRNA experiments; format: cell-based, human; conditions: siRNA experiment, not transfected
Protocol: Silencer select pre-designed and validated GILZ siRNA (Invitrogen), with off-target prediction algorithms, was used to knockdown GILZ expression. Mo-DC were transfected using Lipofectamine RNAiMAX Reagent (Invitrogen). RNAi duplex and lipofectamine reagent were incubated together for 20 min, then added to MoDC cultures and incubated for 2 hr at 37° C. and 5% CO2. Transfected MoDC were treated in an identical fashion as described for the MoDC/lymphocyte co-cultures. MoDC were also transfected with scramble siRNA.
as §1

lymphocytes [5] = assay: Apoptosis of ECP-processed lymphocytes after overnight incubation; format: cell-based, human; conditions: UVA-activated 8-MOP; APO2-PE, Trypan blue and/or annexin/propidium iodide
immature MoDC = conditions: 24 hr
GILZ [6] = assay: GILZ mRNA expression in CD11c+ MoDC (quantitative real-time PCR); format: cell-based, human
P-selectin = assay: Surface expression of P-selectin on platelets (platelet activation); format: cell-based, human; conditions: platelets activated with thrombin (positive control)
Source text: Monoclonal antibodies for immunophenotyping included CD14 (LPS receptor; monocytes), CD11c (integrin subunit; monocytes and DC), HLA-DR (class II MHC molecule), CD83 (DC marker), CD62p (P-selectin; activated platelets), and CD61 (integrin subunit; platelets). Antibodies were obtained from Beckman Coulter (CD14, CD11c, HLADR, CD83) or Sigma (CD62p, CD61) and used at their pre-determined optimal dilutions. Background staining was established with appropriate isotype controls, and immunofluorescence was analyzed using a FC500 flow cytometer (Beckman Coulter). Two-color membrane staining was performed by adding the pre-determined optimal concentrations of both antibodies directly conjugated to FITC or PE and incubating for 20 min at 4° C., followed by washing to remove unbound antibodies. Combined membrane and cytoplasmic staining was performed following manufacturer's instructions for cell fixation and permeabilization (Intraprep kit, Beckman Coulter).
Upon encountering stimuli such as damaged endothelium or thrombin, platelets become activated and almost instantaneously translocate these intracellular proteins to the plasma membrane (Kaplan et al., 1979, see references). […] To test this hypothesis, surface expression of P-selectin, a well-known marker of platelet activation, was assessed before and after adhesion. […]

monocytes = assay: Static co-culture of monocytes with platelets; format: cell-based, human; conditions: platelets activated with thrombin; no flow; 18 hours
Protocol: Experiments involving co-cultures of monocytes with additional platelets were performed as described in the Overnight Culture section, with a few necessary modifications. Following Ficoll-Hypaque separation, mononuclear cells were resuspended in 30% AB serum/RMPI to a final concentration of 10×10^6 cells/ml, of which 1 ml was allocated to each well of a 16-well plate. An additional 1 ml of platelets (suspended in RPMI, at 2× the desired final concentration) or RPMI without platelets was then added to each well. To activate platelets, 500 μl containing 2 units of thrombin was added to half the wells, and 500 μl of RPMI was added to the others to balance the volume. Cells were then incubated as described previously.

[7] = 100 ng/mL and 1 J/cm^2, 24 hr after treatment
[8] = 24 hr after LPS stimulation, vs untreated MoDC
[9] = 8-MOP 0 to 200 ng/mL, UVA 1 or 2 J/cm2
[10] = product of 8-MOP and UVA exceeded 100

Compound: COc1c2occc2cc2ccc(=O)oc12 [8-MOP, 8-methoxypsoralen]
- GILZ up-regulation, MoDC cultured alone (GILZ [1]): 2.78 fold
- Late apoptotic CD11c+ cells (CD11c+ cells; 1 J/cm^2, all doses of 8-MOP tested, 24 hr): less than 13%
- Late apoptotic CD11c+ cells (CD11c+ cells; 2 J/cm^2, all doses of 8-MOP tested, 24 hr): less than 16%
- Early apoptotic CD11c+ cells compared to untreated MoDC (CD11c+ cells; 2 J/cm^2 and 200 ng/mL, 24 hr): increase
- Cell death (CD11c+ cells; 4 J/cm^2 UVA (data not shown)): high levels of non-specific cell death
- Early apoptotic lymphocytes (lymphocytes [2]; [7]): 44.3%
- Late apoptotic lymphocytes (lymphocytes [2]; [7]): 33.7%
- Time at which lymphocytes display Annexin-V after treatment (lymphocytes [2]; 1 J/cm^2 and 100 ng/mL (data not shown)): ≤ 2 h
- Lymphocytes Annexin-V+ (lymphocytes [2]; 24 hr after treatment): 64.3±3.2%
- IL-10 production (MoDC [3]; [8]): increased production of IL-10
- Production of pro-inflammatory cytokines and chemokines (MoDC [3]; [8]): decreased production of all pro-inflammatory cytokines and chemokines tested, except TNF-α and IFN-γ
- Ratio of IL-10 to IL-12p70, MoDC cultured alone (MoDC [3]; after LPS, untreated MoDC 6.7): 38.7
- Ratio of IL-10 to IL-12p70, PUVA-DC exposed to ApoL (MoDC [3]; after LPS, untreated MoDC 6.7): 114.9
- IL-10 to IL-12p70 ratio, non-transfected MoDC cultured alone (MoDC [4]): 8.4
- IL-10 to IL-12p70 ratio, non-transfected PUVA-DC exposed to ApoL (MoDC [4]): 28.4
- ECP-processed lymphocytes apoptotic after overnight incubation (lymphocytes [5]): 99%
- Membrane CD83, CD80 and CD86 expression (qualitative) (immature MoDC; [9]): down-regulates
- Membrane HLA-DR expression (qualitative) (immature MoDC; [9]): up-regulates
- Increase of HLA-DR expression (immature MoDC; [10]): 38%
- Reduction of CD80 expression (immature MoDC; [10]): 30%
- Reduction of CD83 expression (immature MoDC; [10]): 31%
- Reduction of CD86 expression (immature MoDC; [10]): 54%
- GILZ expression (GILZ [6]; 0.5 J/cm^2 UVA): no effect on GILZ expression until the 8-MOP concentration reached 200 ng/mL
- GILZ up-regulation (GILZ [6]; 1 J/cm^2 UVA, 100 ng/mL 8-MOP, 24 hr): 2.9 fold
- GILZ up-regulation (GILZ [6]; 1 J/cm^2 UVA, 200 ng/mL 8-MOP, 24 hr): 4.4 fold
- 8-MOP concentration at which dose-dependent GILZ up-regulation starts (GILZ [6]; 2 J/cm^2 UVA): 50 ng/mL
- GILZ expression (GILZ [6]; 8-MOP alone, without UVA, 24 hr): did not effect GILZ expression
- Time GILZ remains significantly elevated (GILZ [6]; 8-MOP and UVA light): 72 h
- Time of peak GILZ induction after treatment (GILZ [6]; 8-MOP and UVA light): 24 h
- GILZ expression in immature MoDC after 8-MOP plus UVA light (qualitative) (GILZ [6]; 24 hr after PUVA): up-regulates GILZ
- GILZ expression increase (GILZ [6]; combination of 8-MOP and UVA light, relative to untreated MoDC (FIG. 10E)): 5.5 fold
- GILZ up-regulation (GILZ [6]; product of 8-MOP and UVA = 100): 3 fold
- GILZ up-regulation (GILZ [6]; product of 8-MOP and UVA = 200): 4.8 fold
- GILZ up-regulation (GILZ [6]; product of 8-MOP and UVA = 400): 8.6 fold

Compound: thrombin
- P-selectin mean fluorescence intensity (MFI) (P-selectin): 108.3±23
- Platelets P-selectin positive (P-selectin): 71±18%
- DC differentiation of monocytes under static conditions (monocytes): neither activated nor non-activated platelets were capable of inducting DC differentiation; also recorded: did not cause a discernible difference
